# In US11464763B2, “Parasiticidal compositions comprising an isoxazoline active agent, methods and uses thereof” (BOEHRINGER INGELHEIM ANIMAL HEALTH USA INC., priority 2011, dated 2022):
# Experiments:
# [1] = Accelerated stability of Cmpd. A in solvents at 50° C.; type: physicochemical
# From the text: An important aspect of the invention is to provide a multiple-use container comprising a topical composition of the invention, from which accurate single dose aliquots of the long lasting topical formulations may be administered. The formulation must remain stable with repetitive exposure to the outside environment, particularly oxygen and water. This embodiment may be particularly useful with the very long lasting formulations of the invention that require administration to an animal infrequently, such as once every 3-6 months, or similar. Some solvents such as ethers (including DMI, Transcutol® and the like) give rise to peroxides, which then yield ketones and aldehydes that may be further degraded to acids. The presence of acids may contribute to the degradation of acid hydrolysis-susceptible molecules, including isoxazoline active agents. Thus, formulation stability is particularly important for the multi-dose container application, where the formulations can be exposed to oxygen and water during multiple rounds of opening and closing. […]
# [2] = test system: Sarcoptes scabiei var. bovis; assay: Pour-on efficacy against Sarcoptes scabiei var. bovis (mange mites) in cattle (Example 17); type: in vivo; conditions: for % Reduction: live mite counts in scrapings
# Procedure: The efficacy of two pour-on formulations of the invention comprising isoxazoline Compound A at doses of 2.5 mg/kg and 10 mg/kg were tested against natural and induced infestations with Sarcoptes scabiei var. bovis (mange mites) in cattle compared with an untreated control. Four healthy head of cattle weighing between 100 to 300 kg were used in each study group. Cattle in Group 1 were untreated (control). Cattle in Group 2 were treated on Day 0 with a pour-on formulation comprising Compound A at a concentration of 2.5% (w/v) in DES at a dose of 2.5 mg/kg; and cattle in Group 3 were treated on Day 0 with a pour-on formulation comprising Compound A at a concentration of 10% (w/v) in DES at a dose of 10 mg/kg. The formulation was applied by measuring the required amount of the solution into a marked disposable syringe and applying the material evenly along the mid-line of the back of each animal from the withers to the tail head.
# Live (motile) Sarcoptes scabiei var. bovis (mange mites) were counted on days 7, 14, 20, 27, 34, 41, 48 and 55 in scrapings collected from the edges of active lesions or, if lesions regressed during the study, from the area where active lesions were at the commencement of the study. Scrapings were made from six sites with an area of at least 3 cm×3 cm in size on each animal. Tables 18A and 18B below show the efficacy of the two pour-on formulations against Sarcoptes scabiei var. bovis over 56 days. […] The long lasting efficacy of the pour-on formulations of the invention against Sarcoptes scabiei var. bovis from one topical treatment is unexpected and surprising.
smiles,measurement,setting,value
"O=C(CNC(=O)c1ccc(C2=NOC(c3cc(Cl)cc(C(F)(F)F)c3)(C(F)(F)F)C2)c2ccccc12)NCC(F)(F)F (stereo not drawn) [Compound A, 4-[5-[3-chloro-5-(trifluoromethyl)phenyl]-4,5-dihydro-5-(trifluoromethyl)-3-isoxazolyl]-N-[2-oxo-2-[(2,2,2-trifluoroethyl)amino]ethyl]-1-naphthalanecarboxamide]","change in assay, accelerated stability study","[1]; 12% (w/v) solution in DMI, eleven week, 50° C., clear glass containers",no significant change in assay
same,stability in solvents,"[1]; DES, DIPA, DMI, triacetin, GF and propylene carbonate, 50° C. in glass bottles",stable
same,efficacy against Sarcoptes scabiei var. bovis,"[2]; 10% (w/v) formulation, day 14 through day 55",100%
same,efficacy against Sarcoptes scabiei var. bovis,"[2]; both pour-on formulations, starting on day 7 through at least day 56",higher than 95%
same,% Reduction,"[2]; Group 2: pour-on 2.5% (w/v) in DES, 2.5 mg/kg, Day 7",96.7%
same,% Reduction,"[2]; Group 2: pour-on 2.5% (w/v) in DES, 2.5 mg/kg, Day 14",98.2%
same,% Reduction,"[2]; Group 2: pour-on 2.5% (w/v) in DES, 2.5 mg/kg, Day 20",99.6%
same,% Reduction,"[2]; Group 2: pour-on 2.5% (w/v) in DES, 2.5 mg/kg, Day 27",100%
same,% Reduction,"[2]; Group 2: pour-on 2.5% (w/v) in DES, 2.5 mg/kg, Day 34",100%
same,% Reduction,"[2]; Group 2: pour-on 2.5% (w/v) in DES, 2.5 mg/kg, Day 41",100%
same,% Reduction,"[2]; Group 2: pour-on 2.5% (w/v) in DES, 2.5 mg/kg, Day 48",100%
same,% Reduction,"[2]; Group 2: pour-on 2.5% (w/v) in DES, 2.5 mg/kg, Day 55",100%
same,% Reduction,"[2]; second line of the table, ""Group 2"", pour-on in DES, Day 7",96.8%
same,% Reduction,"[2]; second line of the table, ""Group 2"", pour-on in DES, Day 14",100%
same,% Reduction,"[2]; second line of the table, ""Group 2"", pour-on in DES, Day 20",100%
same,% Reduction,"[2]; second line of the table, ""Group 2"", pour-on in DES, Day 27",100%
same,% Reduction,"[2]; second line of the table, ""Group 2"", pour-on in DES, Day 34",100%
same,% Reduction,"[2]; second line of the table, ""Group 2"", pour-on in DES, Day 41",100%
same,% Reduction,"[2]; second line of the table, ""Group 2"", pour-on in DES, Day 48",100%
same,% Reduction,"[2]; second line of the table, ""Group 2"", pour-on in DES, Day 55",100%
same,efficacy against Sarcoptes scabiei var. bovis,"[2]; lower concentration pour-on formulation (Group 2), day 27 through the end of the study",100%
